According to patent publication US8680290B2, “Isoxazoline derivatives and their use as herbicides” (Syngenta Limited, priority 2004, dated 2014):

Experiments:
Format in all cases: in vivo
[1] = system: Monocotyledonous and dicotyledonous test plants; test: Example B2 herbicidal action, application pre-emergence, 96-cell seed trays (Table B2b); conditions: 1000 g/ha
Method: (§1) Monocotyledonous and dicotyledonous test plants were sown in sterilised standard soil in seed trays each having 96 cells. After one day (pre-emergence) or after 8 to 9 days cultivation (post-emergence) under controlled conditions in a climatic chamber (cultivation at 17/23° C.; 13 hours light; 50-60% humidity; after application at 19/24° C.), the plants were treated with an aqueous spray solution of 1000 mg/l of the active ingredient used (rate of application: […]; incl. 10% DMSO as solvent). The plants were grown on in the climatic chamber until the test was evaluated (10 total damage to plant, 0=no damage to plant) after 9 or 13 days.

[2] = system: Monocotyledonous and dicotyledonous test plants; test: Example B1 herbicidal action, application pre-emergence (Table B1b); conditions: 250 g/ha, evaluated after 4 weeks
Procedure, shortened: (§2)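 Visual damage rating, 10 = plant dead and 0 = unharmed, taken at 3 weeks for post-emergence and 4 weeks for pre-emergence treatment. Application by spray of formulated aqueous solution either immediately after sowing or at 8–9 days' growth, with mono- and dicot plants kept in a greenhouse.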

[3] = system: Monocotyledonous and dicotyledonous test plants; test: Example B2 herbicidal action, application post-emergence, 96-cell seed trays (Table B2a); conditions: 1000 g/ha
Method: as §1

[4] = system: Monocotyledonous and dicotyledonous test plants; test: Example B1 herbicidal action, application post-emergence (Table B1a); conditions: 250 g/ha, evaluated after 3 weeks, scale 0-10
Procedure, shortened: as §2

maize [5] = test: Example E1 pre-emergent safening test on maize (Tables E1 Marista, E2 Lorenzo); conditions: after 14 days
Method: The test plants were sown in seed trays under greenhouse conditions. A standard earth was used as the culture substrate. In a pre-emergent stage, the herbicides were applied both by themselves and in a mixture with safeners to the soil surface. The application was carried out with an aqueous suspension of the test substances, prepared from a 25% wettable powder (Example F3, b according to WO 97/34485) or from a suspension concentrate (Example F8 according to WO 97/34485), to achieve a field equivalent of 200 l/ha. The tests were evaluated after 14 days (100%=plants completely dead; 0%=no phytotoxic action on the plants).

maize [6] = test: Example F1 post-emergent safening test on maize (Table F1, Marista 11f); conditions: post-emergent (GS 11), after 28 days
Method: The test plants were sown in containers under glasshouse conditions. A standard earth was used as the culture substrate. In a maize growth stage of one leaf (GS 11), the herbicides were applied both by themselves and in a mixture with safeners to the soil and leaf surface. The application was carried out with an aqueous suspension of the test substances, prepared from a 25% wettable powder (Example F3,b according to WO 97/34485) or a suspension concentrate (Example F8 according to WO 97/34485), to achieve a field equivalent of 200 l/ha. The tests were evaluated after 28 days (100%=plants completely dead; 0%=no phytotoxic action on the plants).

Row | Compound | herbicidal action (damage rating 0-10), Agrostis [1] | herbicidal action (damage rating 0-10), Digitaria [1] | herbicidal action (damage rating 0-10), Poa [1] | herbicidal action (damage rating 0-10), Setaria [1] | herbicidal action (damage rating 0-10), Amaranthus [2] | herbicidal action (damage rating 0-10), Digitaria [2] | herbicidal action (damage rating 0-10), Panicum [2] | herbicidal action (damage rating 0-10), Setaria [2] | herbicidal action (damage rating 0-10), Sida [2] | herbicidal action (damage rating 0-10), Agrostis [3] | herbicidal action (damage rating 0-10), Amaranthus [3] | herbicidal action (damage rating 0-10), Poa [3] | herbicidal action (damage rating 0-10), Setaria [3] | herbicidal damage rating, Abutilon [4] | herbicidal damage rating, Amaranthus [4] | herbicidal damage rating, Digitaria [4] | herbicidal damage rating, Panicum [4] | herbicidal damage rating, Setaria [4] | herbicidal damage rating, Sida [4] | other results
1 | CC1(C)CC(S(=O)(=O)C(F)c2c(F)cccc2F)=NO1 (stereo not shown) [1.06] | 10 | 10 | 10 | 10 | 10 | 5 | 10 | 9 | 7 | 8 | 8 | 8 | 7 | – | – | – | – | – | – | –
2 | Cn1nc(C(F)(F)F)c(C(Cl)S(=O)(=O)C2=NOC(C)(C)C2)c1OCC(F)(F)F (stereo not shown) [2.04] | – | – | – | – | 10 | 10 | 10 | 10 | 8 | – | – | – | – | 7 | 4 | 4 | 8 | 6 | 6 | phytotoxic action on maize (Lorenzo) (maize [5]; herbicide alone 100 g/ha): 2.5%; phytotoxic action on maize (Marista) (maize [5]; herbicide alone 100 g/ha): 10%; phytotoxic action on maize (Lorenzo) (maize [5]; herbicide alone 200 g/ha): 17.5%; phytotoxic action on maize (Marista) (maize [5]; herbicide alone 200 g/ha): 15%
3 | Cn1nc(C(F)(F)F)c(C(Br)S(=O)(=O)C2=NOC(C)(C)C2)c1OCC(F)(F)F (stereo not shown) [2.10] | – | – | – | – | 10 | 10 | 10 | 10 | 8 | – | – | – | – | 6 | 8 | 6 | 7 | 5 | 4 | phytotoxic action on maize (Marista 11f) (maize [6]; herbicide alone 37.5 g/ha): 20%; phytotoxic action on maize (Marista 11f) (maize [6]; herbicide alone 75 g/ha): 50%; phytotoxic action on maize (Marista 11f) (maize [6]; herbicide alone 150 g/ha, 100%=plants completely dead): 75%
4 | CC1(C)CC(S(=O)(=O)C(Cl)c2c(F)cccc2F)=NO1 (stereo not shown) [Compound No. 1.07, 3-[chloro-(2,6-difluoro-phenyl)-methanesulfonyl]-5,5-dimethyl-4,5-dihydroisoxazole] | 10 | 10 | 10 | 10 | 8 | 10 | 10 | 10 | 7 | 8 | 7 | 8 | 7 | 5 | 3 | 5 | 7 | 7 | 2 | –
